Experimental data: article PMC6379368, “Extracellular and intracellular small-molecule galectin-3 inhibitors” (Scientific Reports, 2019)

Tests used:
Assay type in all cases: cell-based
AsPC-1 cells = assay: Growth curves, AsPC-1; details: AsPC-1, 10 µM
Method: (§1) METHODS (not described in main article)
(§2) The AsPC-1, BxPc-3, MIA PaCa-2, and PanC-1 pancreatic cancer cell lines were purchased from the American Type Culture Collection (ATCC) (Manassas, VA, USA). AsPC-1 and BxPc-3 cell lines were cultured in RPMI-1640 medium, and MIA PaCa-2 and PanC-1 in Dulbecco's Modified Eagle Medium (DMEM)/Ham's F12 medium mixture (1:1). The medium of all four pancreatic cancer cell lines was supplemented with 10 % fetal bovine serum (FBS), 100 U/ml penicillin, and 100 μg/ml streptomycin. The L56Br-C1 breast cancer cell line was established at Lund University (Lund, Sweden)1, and was cultured in RPMI-1640 medium supplemented with 10 % heat-inactivated FBS, 100 U/ml penicillin, 100 μg/ml streptomycin, 1 mM non-essential amino acids, and 10 µg/ml insulin. The MCF-10A normal-like breast cell line was obtained from ATCC and was cultured in the same medium mixture as L56Br-C1 with the addition of 20 ng/ml epidermal growth factor, 50 ng/ml cholera toxin, and 500 ng/ml hydrocortisone.
(§3) Fluorescence anisotropy assay
(§4) The affinity between inhibitor 1 and the carbohydrate recognition domain (CRD) of galectin-8C and between inhibitor 3 and the CRD of galectin-2, -4N, -4C, 8C, and -9C was determined using the fluorescence anisotropy assay described in the main article. Experimental conditions used for each galectin […]

L56Br-C1 cells = assay: Growth curves, L56Br-C1 breast cancer cells; details: L56Br-C1, 10 µM
Method: as §1, §2, §3, §4

galectin-3 = galectin-3 (Homo sapiens, UniProt P17931); assay: GPN-induced galectin-3 accumulation (puncta) in JIMT-1 breast cancer cells; parameters: In the intracellular assay, in contrast, only endogenous galectin was present; endogenous in cells; host or cells: JIMT-1 breast cancer cells
galectin-3, sequence (P17931 whole entry): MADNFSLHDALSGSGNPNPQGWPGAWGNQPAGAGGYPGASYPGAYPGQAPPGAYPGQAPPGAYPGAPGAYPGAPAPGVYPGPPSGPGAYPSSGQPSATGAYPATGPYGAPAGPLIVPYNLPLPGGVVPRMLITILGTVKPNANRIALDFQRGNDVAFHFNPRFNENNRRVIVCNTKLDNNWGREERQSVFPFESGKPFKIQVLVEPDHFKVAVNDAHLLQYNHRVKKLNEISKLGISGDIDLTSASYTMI
Method: The total number of galectin-3 puncta and nuclei in the microscopy images were quantified using the software ImageJ.
Cells were seeded in multi-well plates with sterile glass coverslips placed in each well and allowed to adhere to the cell culture surface for at least 24 hours. Then the cells were pre-treated with the different galectin-3 inhibitors at different concentrations (or DMSO as control) for 15 minutes or 24 hours followed by addition of the lysosomal damaging peptide GPN[42] and incubated another 13 minutes, with the inhibitors still present. The 13-minute incubation with GPN and 15-minute pre-incubation with inhibitors were done in DMEM/Ham’s F12 medium with 15 mM HEPES buffer (without serum), whereas the 24-hour incubation with inhibitors were performed in fully supplemented DMEM/Ham’s F12 medium (as described under Cell culture).
After treatment with GPN, the cells were fixed in 3.7% (v/v) formaldehyde in phosphate-buffered saline (PBS) for 15 minutes, permeabilized and blocked using 1% (v/v) TWEEN 20 and 5% (w/v) BSA in PBS for 30 minutes, then incubated with primary and secondary antibodies for one hour each (washed with PBS in between). Primary and secondary antibodies for galectin-3 staining were a rat anti-mouse galectin-3 IgG antibody[50],[51] […] All antibodies were diluted in 0.05% TWEEN 20 and 5% BSA in PBS. […] The coverslips were mounted on glass slides using Mowiol® 4–88 and left at 8 °C overnight before further examination. For imaging of the cells, a LSM-510 confocal laser scanning microscope (Carl Zeiss Microscopy GmbH, Oberkochen, Germany), equipped with a Hamamatsu R6357 photomultiplier (Hamamatsu Photonics K.K., Hamamatsu, Japan), was used. […] Maximum intensity projections of each picture obtained were analyzed with ImageJ 1.47 v (Rasband, W.S., ImageJ, U. S. National Institutes of Health, Bethesda, Maryland, USA) to quantify the number of galectin-3 dots and the number of nuclei in each picture. The quantification of particles (i.e. galectin-3 puncta/nucleus) was carried out using batch processing in the software, where a single macro (including parameters such as image thresholds, particle size and circularity) was used for all images obtained from a single experiment, this to reduce user bias and time consumption.

SMILES: OC[C@H]1O[C@@H](S[C@@H]2O[C@H](CO)[C@H](O)[C@H](n3cc(-c4cccc(F)c4)nn3)[C@H]2O)[C@H](O)[C@@H](n2cc(-c3cccc(F)c3)nn2)[C@H]1O [compound 1]
- cell proliferation (growth curves) (AsPC-1 cells): no effect
- cell proliferation (growth curves) (L56Br-C1 cells): no effect
- inhibition of galectin-3 accumulation (extent) (galectin-3; 15 minutes pre-treatment, high concentrations 50–100 µM): complete inhibition of galectin-3 accumulation could not be reached
- inhibition of galectin-3 accumulation (extent) (galectin-3; 24 hours pre-treatment, around 1–5 µM): nearly complete inhibition
